For test [1], the target named is T1, Androgen receptor (Homo sapiens, UniProt P10275).
T1 sequence (P10275 whole entry): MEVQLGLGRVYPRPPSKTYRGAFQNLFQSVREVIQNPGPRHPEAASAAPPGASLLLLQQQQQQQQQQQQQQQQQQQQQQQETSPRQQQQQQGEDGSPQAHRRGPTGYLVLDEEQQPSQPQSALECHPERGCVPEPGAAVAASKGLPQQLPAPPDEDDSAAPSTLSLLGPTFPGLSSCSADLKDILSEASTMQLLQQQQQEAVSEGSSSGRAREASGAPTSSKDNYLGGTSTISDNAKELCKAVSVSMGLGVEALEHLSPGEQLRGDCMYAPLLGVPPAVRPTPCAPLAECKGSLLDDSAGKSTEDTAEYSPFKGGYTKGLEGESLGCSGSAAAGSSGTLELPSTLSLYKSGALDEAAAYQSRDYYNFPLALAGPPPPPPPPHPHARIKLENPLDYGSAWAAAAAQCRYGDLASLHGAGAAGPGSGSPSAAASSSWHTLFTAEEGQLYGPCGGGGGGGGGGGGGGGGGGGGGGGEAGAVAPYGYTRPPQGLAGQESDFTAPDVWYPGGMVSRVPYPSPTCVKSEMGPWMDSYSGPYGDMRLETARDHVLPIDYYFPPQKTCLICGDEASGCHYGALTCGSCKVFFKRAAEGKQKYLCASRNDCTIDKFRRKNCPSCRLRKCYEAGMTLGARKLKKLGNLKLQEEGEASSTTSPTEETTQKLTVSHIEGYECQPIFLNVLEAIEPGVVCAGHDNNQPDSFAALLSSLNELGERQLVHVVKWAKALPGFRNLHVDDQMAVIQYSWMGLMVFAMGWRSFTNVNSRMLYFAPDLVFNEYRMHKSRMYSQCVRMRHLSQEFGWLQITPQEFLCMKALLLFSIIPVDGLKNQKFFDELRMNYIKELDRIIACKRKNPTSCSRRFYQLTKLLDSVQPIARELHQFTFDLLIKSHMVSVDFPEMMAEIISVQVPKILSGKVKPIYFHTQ
Description: Binding affinity towards human androgen receptor (hAR), using dihydrotestosterone as radioligand for competitive binding assay

The target of test [2] is T1, Androgen receptor. The source holds these as a separate data set.
Description: (§1) Agonistic activity against human androgen receptor (hAR) expressed in CV-1 cell lines
Test [3] deals with T1, Androgen receptor. The settings on record: cv-1.
Description: (§2) Antagonistic activity against human androgen receptor (hAR) expressed in CV-1 cell lines
Test [4] deals with T1, Androgen receptor. The source holds these as a separate data set.
Description: as §2
Test [5] has as its target T1, Androgen receptor. The settings on record: cv-1. The source holds these as a separate data set.
Description: as §1
The target in test [6] is T1, Androgen receptor. Description: Antagonistic activity against human androgen receptor (hAR) expressed in CV-1 cells; no data. Type of test: functional, cell-based.
The target of test [7] is T2, Androgen receptor (Homo sapiens) (UniProt P10275).
T2 sequence (whole entry): T1 sequence (P10275 whole entry)
Put plainly: Antagonistic activity against human androgen receptor (hAR); no data. Type of test: functional.

This note sets out measurements from ChEMBL document CHEMBL1132083, “Switching androgen receptor antagonists to agonists by modifying C-ring substituents on piperidino[3,2-g]quinolinone” (Bioorg Med Chem Lett, 1999).

Structures are written as SMILES. A value given as a limit tells only on which side of the number the result lay.

One may read the Ki as a dissociation constant, usually derived from enzyme kinetics or from competition with a known ligand. What is called EC50 is the midpoint of the concentration-response curve. Read a low EC50 as a more potent agent. As a reminder, the IC50 is the concentration that gives 50% inhibition. Regarding `CC[C@H]1Cc2cc3c(C(F)(F)F)cc(O)nc3cc2N[C@@H]1C`, at Androgen receptor [1], the Ki was determined as 11 nM. The compound also had an EC50 on Androgen receptor [2] of 9 nM. In addition, at Androgen receptor [3], the IC50 was < 10 µM.
`C[C@H]1Cc2cc3c(C(F)(F)F)cc(O)nc3cc2N[C@@H]1C` displayed an IC50 against Androgen receptor [4] of 33 nM. Moreover, the Ki at Androgen receptor [1] stood at 22 nM. On Androgen receptor [5], the EC50 was < 10 µM.
On Androgen receptor [1], `CC[C@@H]1Cc2cc3c(C(F)(F)F)cc(=O)[nH]c3cc2N[C@@H]1CC` had a Ki of 29 nM. On Androgen receptor [2], this compound showed an EC50 of 20 nM. The IC50 against Androgen receptor [3] was < 10 µM.
For `CC[C@@H]1CCc2cc3c(C(F)(F)F)cc(O)nc3cc2N1`, the IC50 against Androgen receptor [4] is 11 nM. The EC50 on Androgen receptor [5] is < 10 µM.
With `C[C@@H]1Cc2cc3c(C(F)(F)F)cc(O)nc3cc2N[C@@H]1C`, half-maximal inhibition against Androgen receptor [4] (IC50) was put at 74 nM. In addition, the Ki on Androgen receptor [1] was found to be 15 nM. The EC50 on Androgen receptor [2] is 34 nM.
In the same order, the values of `CC[C@H]1Nc2cc3[nH]c(=O)cc(C(F)(F)F)c3cc2C[C@@H]1C` are 11 nM, 12 nM and 1670 nM.
In the case of `CCC[C@@H]1CCc2cc3c(C(F)(F)F)cc(O)nc3cc2N1`, on Androgen receptor [4], the IC50 amounted to 32 nM. Further, at Androgen receptor [1], the affinity corresponds to a Ki of 24 nM. In addition, the EC50 at Androgen receptor [5] is < 10 µM.
In the same order, the values of `CC(C)(O)C(=O)Nc1ccc([N+](=O)[O-])c(C(F)(F)F)c1O` are 15 nM, 27 nM and < 10 µM.
Consider `C[C@@H]1C[C@H](C)c2cc3c(C(F)(F)F)cc(O)nc3cc2N1`, for which 15 nM corresponded to half-maximal inhibition against Androgen receptor [4] (IC50). In addition, on Androgen receptor [1], the Ki is 6 nM. The EC50 at Androgen receptor [2] was found to be 59 nM.
In turn, `CC(C)[C@@H]1CCc2cc3c(C(F)(F)F)cc(=O)[nH]c3cc2N1` registered an IC50 against Androgen receptor [4] of 25 nM. Affinity at Androgen receptor [1] was put at a Ki of 109 nM. Also, on Androgen receptor [5], the EC50 was < 10 µM.
Turning to `CC[C@H]1C[C@@H](C)Nc2cc3nc(O)cc(C(F)(F)F)c3cc21`, on Androgen receptor [6], the IC50 is < 10 µM. The Ki on Androgen receptor [1] came to 23 nM. The midpoint of the response at Androgen receptor [2], the EC50, lay at 66 nM. Further, in test [7], the Efficacy was < 20%.
For `CC[C@@H]1C[C@H](CC)c2cc3c(C(F)(F)F)cc(O)nc3cc2N1`, in that order: < 10 µM, 9 nM, 32 nM and < 20%.
On Androgen receptor [4], `CC[C@H]1Nc2cc3nc(O)cc(C(F)(F)F)c3cc2C[C@H]1C` yielded an IC50 of 15 nM. Moreover, the affinity at Androgen receptor [1] corresponds to a Ki of 11 nM. In addition, a half-maximal response at Androgen receptor [2] (EC50) required 2470 nM.
Regarding `CC[C@H]1Nc2cc3[nH]c(=O)cc(C(F)(F)F)c3cc2CC1(C)C`, on Androgen receptor [4], 42 nM corresponded to half-maximal inhibition (IC50). In addition, the Ki at Androgen receptor [1] amounted to 50 nM. Besides, the EC50 at Androgen receptor [5] is < 10 µM.
On Androgen receptor [4], `CC[C@H]1Nc2cc3nc(O)cc(C(F)(F)F)c3cc2CC1(CC)CC` registered an IC50 of 48 nM. For the same compound, the Ki at Androgen receptor [1] was determined as 42 nM. Also, at Androgen receptor [5], the EC50 was < 10 µM.
In the case of `CC[C@@H]1C[C@H](C)c2cc3c(C(F)(F)F)cc(O)nc3cc2N1`, the IC50 against Androgen receptor [4] is 137 nM. The compound also had a Ki at Androgen receptor [1] of 21 nM. In addition, the midpoint of the response on Androgen receptor [2], the EC50, lay at 119 nM.
In the same order, the values of `C[C@@H]1CCc2cc3c(C(F)(F)F)cc(=O)[nH]c3cc2N1` are 19 nM, 7 nM and 21 nM.
As to `C[C@H]1Nc2cc3nc(O)cc(C(F)(F)F)c3cc2CC1(C)C`, it took 24 nM to reach half-maximal inhibition at Androgen receptor [4] (IC50). Besides, the inhibition constant (Ki) at Androgen receptor [1] was 82 nM. Besides, the half-maximal effective concentration (EC50) on Androgen receptor [5] is < 10 µM.
`CC[C@H]1Cc2cc3c(C(F)(F)F)cc(=O)[nH]c3cc2N[C@@H]1CC` yielded a Ki on Androgen receptor [1] of 16 nM. Also, at Androgen receptor [2], the EC50 turned out to be 3 nM. In addition, the IC50 at Androgen receptor [3] is < 10 µM.
In the same order, the values of `CC[C@@H]1Cc2cc3c(C(F)(F)F)cc(=O)[nH]c3cc2N[C@@H]1C` are 15 nM, 10 nM and < 10 µM.
